Legend:
[1] = biological target: Serine/threonine-protein kinase MARK1 (Homo sapiens) (UniProt Q9P0L2); test: MARK1 (MARK) Kinase screen; settings: Compound concentration 1.0 uM
[2] = biological target: Protein-tyrosine kinase 6 (Homo sapiens) (UniProt Q13882); test: PTK6 (Brk) Kinase screen; settings: Compound concentration 1.0 uM
Rattus norvegicus = species on record: Rattus norvegicus; test: Inhibition of Glutamate, NMDA, Phencyclidine at 10 µM in the Eurofins-Panlabs radioligand binding assay (Eurofins_assay_233000); assay type: protein-complex assay; settings: Compound concentration 10.0 uM
[3] = biological target: Estrogen receptor (Homo sapiens) (UniProt P03372); settings: Compound concentration 10.0 uM
Chain of Estrogen receptor (Homo sapiens) (P03372 whole entry): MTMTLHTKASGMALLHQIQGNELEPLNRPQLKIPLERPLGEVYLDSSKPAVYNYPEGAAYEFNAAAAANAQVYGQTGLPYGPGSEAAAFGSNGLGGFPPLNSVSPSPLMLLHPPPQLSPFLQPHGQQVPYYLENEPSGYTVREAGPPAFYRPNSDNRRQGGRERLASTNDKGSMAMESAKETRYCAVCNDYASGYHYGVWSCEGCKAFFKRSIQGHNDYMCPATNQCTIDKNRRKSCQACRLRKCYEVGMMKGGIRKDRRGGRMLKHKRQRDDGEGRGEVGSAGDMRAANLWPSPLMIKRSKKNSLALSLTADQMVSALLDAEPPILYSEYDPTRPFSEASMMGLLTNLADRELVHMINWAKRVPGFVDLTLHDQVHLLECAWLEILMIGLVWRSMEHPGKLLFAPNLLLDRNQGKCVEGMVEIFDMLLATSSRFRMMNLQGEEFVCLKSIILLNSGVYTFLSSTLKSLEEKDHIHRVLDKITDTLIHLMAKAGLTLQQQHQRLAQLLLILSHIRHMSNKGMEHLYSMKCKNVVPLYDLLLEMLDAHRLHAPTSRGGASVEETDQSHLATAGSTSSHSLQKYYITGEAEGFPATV

[4] = biological target: Receptor-interacting serine/threonine-protein kinase 2 (Homo sapiens) (UniProt O43353); test: RIPK2 Kinase screen; settings: Compound concentration 1.0 uM
[5] = biological target: PAS domain-containing serine/threonine-protein kinase (Homo sapiens) (UniProt Q96RG2); test: PASK Kinase screen; settings: Compound concentration 1.0 uM
[6] = biological target: T1, Beta-adrenergic receptor kinase 1 (Homo sapiens) (UniProt P25098); test: ADRBK1 (GRK2) Kinase screen; settings: Compound concentration 1.0 uM
T1 sequence (whole entry): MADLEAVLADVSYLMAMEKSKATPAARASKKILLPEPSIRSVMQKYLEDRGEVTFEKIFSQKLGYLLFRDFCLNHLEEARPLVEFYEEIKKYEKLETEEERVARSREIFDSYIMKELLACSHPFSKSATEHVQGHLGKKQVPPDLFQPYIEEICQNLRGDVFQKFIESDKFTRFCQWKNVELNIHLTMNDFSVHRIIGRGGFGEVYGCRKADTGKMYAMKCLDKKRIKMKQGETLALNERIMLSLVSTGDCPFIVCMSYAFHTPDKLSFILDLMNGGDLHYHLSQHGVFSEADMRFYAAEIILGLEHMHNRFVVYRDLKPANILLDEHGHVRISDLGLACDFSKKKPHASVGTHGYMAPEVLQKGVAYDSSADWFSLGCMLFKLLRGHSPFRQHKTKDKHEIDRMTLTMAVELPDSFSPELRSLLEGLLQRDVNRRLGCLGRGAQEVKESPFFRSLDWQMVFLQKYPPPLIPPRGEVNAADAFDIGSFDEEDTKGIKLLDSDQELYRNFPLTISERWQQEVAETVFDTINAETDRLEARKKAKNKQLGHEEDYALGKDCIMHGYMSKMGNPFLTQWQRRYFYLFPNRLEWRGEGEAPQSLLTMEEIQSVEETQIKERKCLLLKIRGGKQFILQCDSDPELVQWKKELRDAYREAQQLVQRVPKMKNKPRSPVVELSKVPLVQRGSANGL

[7] = biological target: Tyrosine-protein kinase Fyn (Homo sapiens) (UniProt P06241); test: FYN Kinase screen; settings: Compound concentration 1.0 uM
[8] = tested on: T2, Receptor-type tyrosine-protein kinase FLT3 (Homo sapiens), P36888 [D835Y]; test: FLT3 D835Y Kinase screen; settings: Compound concentration 1.0 uM
T2 sequence (whole entry): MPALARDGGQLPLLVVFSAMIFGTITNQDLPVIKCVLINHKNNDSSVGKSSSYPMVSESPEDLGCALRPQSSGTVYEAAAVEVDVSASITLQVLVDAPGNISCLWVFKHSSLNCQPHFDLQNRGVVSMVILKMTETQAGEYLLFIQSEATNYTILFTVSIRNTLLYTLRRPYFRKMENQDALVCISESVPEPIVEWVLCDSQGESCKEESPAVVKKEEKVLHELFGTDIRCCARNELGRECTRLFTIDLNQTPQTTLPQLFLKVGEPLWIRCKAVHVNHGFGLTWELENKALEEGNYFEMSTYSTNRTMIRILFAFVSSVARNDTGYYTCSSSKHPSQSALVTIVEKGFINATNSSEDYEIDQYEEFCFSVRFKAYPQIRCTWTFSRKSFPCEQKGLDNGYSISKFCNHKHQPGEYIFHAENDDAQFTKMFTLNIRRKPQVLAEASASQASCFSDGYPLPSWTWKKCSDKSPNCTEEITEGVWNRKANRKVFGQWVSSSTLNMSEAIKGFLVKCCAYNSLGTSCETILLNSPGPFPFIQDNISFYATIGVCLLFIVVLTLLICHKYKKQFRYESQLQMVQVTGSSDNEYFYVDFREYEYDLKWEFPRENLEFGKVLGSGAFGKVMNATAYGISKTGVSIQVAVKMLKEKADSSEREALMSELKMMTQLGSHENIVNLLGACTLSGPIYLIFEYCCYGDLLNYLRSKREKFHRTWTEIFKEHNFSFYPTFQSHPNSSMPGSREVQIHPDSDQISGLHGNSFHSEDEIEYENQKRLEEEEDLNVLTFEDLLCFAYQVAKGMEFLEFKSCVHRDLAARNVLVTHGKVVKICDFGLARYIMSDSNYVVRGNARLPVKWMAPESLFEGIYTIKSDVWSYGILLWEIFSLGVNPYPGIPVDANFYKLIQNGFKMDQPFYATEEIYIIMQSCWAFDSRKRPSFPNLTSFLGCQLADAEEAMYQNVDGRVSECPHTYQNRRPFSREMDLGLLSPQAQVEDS

[9] = biological target: Glycogen synthase kinase-3 beta (Homo sapiens) (UniProt P49841); test: GSK3B (GSK3 beta) Kinase screen; settings: Compound concentration 1.0 uM
[10] = biological target: Receptor tyrosine-protein kinase erbB-2 (Homo sapiens) (UniProt P04626); test: ERBB2 (HER2) Kinase screen; settings: Compound concentration 1.0 uM
[11] = tested on: Proto-oncogene tyrosine-protein kinase receptor Ret (Homo sapiens), P07949 [V804L]; test: RET V804L Kinase screen; settings: Compound concentration 1.0 uM
Chain of Proto-oncogene tyrosine-protein kinase receptor Ret (Homo sapiens), P07949 [V804L] (P07949 whole entry V804L): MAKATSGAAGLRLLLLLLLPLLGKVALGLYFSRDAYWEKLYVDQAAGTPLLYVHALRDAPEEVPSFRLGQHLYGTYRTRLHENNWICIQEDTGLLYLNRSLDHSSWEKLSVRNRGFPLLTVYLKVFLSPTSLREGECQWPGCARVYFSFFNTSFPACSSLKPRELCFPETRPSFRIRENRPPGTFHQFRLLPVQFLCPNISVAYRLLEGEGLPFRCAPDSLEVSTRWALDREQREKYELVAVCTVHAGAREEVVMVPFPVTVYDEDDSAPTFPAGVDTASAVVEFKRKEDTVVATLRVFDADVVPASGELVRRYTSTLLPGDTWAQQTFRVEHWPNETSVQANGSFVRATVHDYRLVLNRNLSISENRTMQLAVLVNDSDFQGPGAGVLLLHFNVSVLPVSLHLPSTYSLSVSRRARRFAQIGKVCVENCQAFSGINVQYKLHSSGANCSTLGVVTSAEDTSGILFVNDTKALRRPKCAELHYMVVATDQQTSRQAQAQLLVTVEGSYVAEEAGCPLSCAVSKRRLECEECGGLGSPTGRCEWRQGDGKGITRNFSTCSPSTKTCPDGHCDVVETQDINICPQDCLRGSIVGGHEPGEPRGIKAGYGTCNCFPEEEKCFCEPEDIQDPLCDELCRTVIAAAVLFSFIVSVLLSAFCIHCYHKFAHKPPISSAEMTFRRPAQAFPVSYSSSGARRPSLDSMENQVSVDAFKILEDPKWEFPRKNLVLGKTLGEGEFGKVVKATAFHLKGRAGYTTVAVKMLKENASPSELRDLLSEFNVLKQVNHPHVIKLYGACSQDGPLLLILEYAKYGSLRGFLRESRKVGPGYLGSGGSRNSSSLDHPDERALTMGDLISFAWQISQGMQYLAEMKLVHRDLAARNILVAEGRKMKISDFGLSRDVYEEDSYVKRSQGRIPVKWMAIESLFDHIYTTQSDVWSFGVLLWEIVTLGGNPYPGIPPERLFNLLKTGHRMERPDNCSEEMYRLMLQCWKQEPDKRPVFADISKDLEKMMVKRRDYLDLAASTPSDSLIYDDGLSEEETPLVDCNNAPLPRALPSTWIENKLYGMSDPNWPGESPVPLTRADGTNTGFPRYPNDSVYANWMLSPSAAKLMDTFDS

[12] = biological target: Insulin receptor (Homo sapiens) (UniProt P06213); test: Protein Tyrosine Kinase, Insulin Receptor Eurofins-Panlabs enzyme assay; parameters: substrate with concentration; settings: Compound concentration 10.0 uM
[13] = biological target: Ephrin type-A receptor 5 (Homo sapiens) (UniProt P54756); test: EPHA5 Kinase screen; settings: Compound concentration 1.0 uM
Chain of Ephrin type-A receptor 5 (Homo sapiens) (P54756 whole entry): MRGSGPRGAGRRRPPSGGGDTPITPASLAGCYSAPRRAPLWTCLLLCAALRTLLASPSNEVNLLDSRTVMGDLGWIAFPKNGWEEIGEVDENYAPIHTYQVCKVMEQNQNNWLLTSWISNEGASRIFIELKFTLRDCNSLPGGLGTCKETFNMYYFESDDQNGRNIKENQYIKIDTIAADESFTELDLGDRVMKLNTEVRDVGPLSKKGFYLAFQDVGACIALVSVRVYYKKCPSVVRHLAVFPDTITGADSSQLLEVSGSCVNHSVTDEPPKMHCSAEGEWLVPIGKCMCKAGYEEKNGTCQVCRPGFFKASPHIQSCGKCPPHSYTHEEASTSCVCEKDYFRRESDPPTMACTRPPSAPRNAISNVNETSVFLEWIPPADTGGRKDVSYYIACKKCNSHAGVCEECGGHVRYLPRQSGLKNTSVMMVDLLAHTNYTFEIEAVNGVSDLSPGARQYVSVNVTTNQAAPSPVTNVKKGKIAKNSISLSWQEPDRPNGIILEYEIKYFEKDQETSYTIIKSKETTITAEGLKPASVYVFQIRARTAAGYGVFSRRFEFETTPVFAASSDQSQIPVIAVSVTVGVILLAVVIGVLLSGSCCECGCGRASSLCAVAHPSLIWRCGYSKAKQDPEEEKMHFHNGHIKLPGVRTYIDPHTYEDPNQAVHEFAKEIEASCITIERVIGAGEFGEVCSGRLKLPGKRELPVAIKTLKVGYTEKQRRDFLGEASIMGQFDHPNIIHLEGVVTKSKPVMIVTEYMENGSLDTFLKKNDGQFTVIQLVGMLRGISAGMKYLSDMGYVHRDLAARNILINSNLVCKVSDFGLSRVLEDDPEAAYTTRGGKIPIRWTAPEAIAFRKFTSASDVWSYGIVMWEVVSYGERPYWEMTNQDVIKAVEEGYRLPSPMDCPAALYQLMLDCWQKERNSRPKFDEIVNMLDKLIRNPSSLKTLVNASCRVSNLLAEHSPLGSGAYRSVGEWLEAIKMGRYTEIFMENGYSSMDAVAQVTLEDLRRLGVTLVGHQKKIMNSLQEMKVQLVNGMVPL

[14] = biological target: Receptor tyrosine-protein kinase erbB-4 (Homo sapiens) (UniProt Q15303); test: ERBB4 (HER4) Kinase screen; settings: Compound concentration 1.0 uM
Chain of Receptor tyrosine-protein kinase erbB-4 (Homo sapiens) (Q15303 whole entry): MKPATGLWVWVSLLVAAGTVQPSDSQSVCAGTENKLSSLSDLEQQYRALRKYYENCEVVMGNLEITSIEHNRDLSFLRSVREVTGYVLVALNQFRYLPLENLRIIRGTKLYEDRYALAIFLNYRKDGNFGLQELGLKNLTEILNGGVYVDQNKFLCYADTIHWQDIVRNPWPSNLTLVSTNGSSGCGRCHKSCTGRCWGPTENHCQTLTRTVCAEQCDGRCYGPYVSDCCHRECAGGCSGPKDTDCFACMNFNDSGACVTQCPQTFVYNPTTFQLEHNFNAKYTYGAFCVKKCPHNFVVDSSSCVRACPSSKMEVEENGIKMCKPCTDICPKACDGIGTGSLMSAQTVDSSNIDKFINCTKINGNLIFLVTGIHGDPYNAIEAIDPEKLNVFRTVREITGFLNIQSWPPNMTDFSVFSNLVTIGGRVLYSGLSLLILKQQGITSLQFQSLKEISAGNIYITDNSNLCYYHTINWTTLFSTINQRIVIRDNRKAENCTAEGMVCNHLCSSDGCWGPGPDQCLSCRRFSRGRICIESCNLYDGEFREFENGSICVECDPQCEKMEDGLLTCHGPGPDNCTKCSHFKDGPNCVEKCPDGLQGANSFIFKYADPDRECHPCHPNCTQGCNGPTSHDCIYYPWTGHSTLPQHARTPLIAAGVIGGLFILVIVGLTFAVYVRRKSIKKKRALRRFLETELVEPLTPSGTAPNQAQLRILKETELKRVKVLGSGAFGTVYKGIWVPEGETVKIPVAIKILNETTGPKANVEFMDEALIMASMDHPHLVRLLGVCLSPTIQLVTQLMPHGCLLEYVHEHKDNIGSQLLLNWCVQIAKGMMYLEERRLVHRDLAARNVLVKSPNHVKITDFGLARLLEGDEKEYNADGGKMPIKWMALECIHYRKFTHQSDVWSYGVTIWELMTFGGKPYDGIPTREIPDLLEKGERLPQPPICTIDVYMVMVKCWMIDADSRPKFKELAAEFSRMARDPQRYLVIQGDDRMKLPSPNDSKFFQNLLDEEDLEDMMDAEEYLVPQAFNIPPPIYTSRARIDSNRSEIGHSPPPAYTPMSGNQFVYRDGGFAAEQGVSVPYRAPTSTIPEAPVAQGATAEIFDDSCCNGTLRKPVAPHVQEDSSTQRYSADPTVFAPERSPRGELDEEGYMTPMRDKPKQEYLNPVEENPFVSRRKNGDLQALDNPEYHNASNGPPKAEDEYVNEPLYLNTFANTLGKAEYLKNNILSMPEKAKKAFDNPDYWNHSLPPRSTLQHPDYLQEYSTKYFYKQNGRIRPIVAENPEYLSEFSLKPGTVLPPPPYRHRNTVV

[15] = biological target: T3, Muscarinic acetylcholine receptor M1 (Homo sapiens) (UniProt P11229); settings: Compound concentration 10.0 uM
T3 sequence (whole entry): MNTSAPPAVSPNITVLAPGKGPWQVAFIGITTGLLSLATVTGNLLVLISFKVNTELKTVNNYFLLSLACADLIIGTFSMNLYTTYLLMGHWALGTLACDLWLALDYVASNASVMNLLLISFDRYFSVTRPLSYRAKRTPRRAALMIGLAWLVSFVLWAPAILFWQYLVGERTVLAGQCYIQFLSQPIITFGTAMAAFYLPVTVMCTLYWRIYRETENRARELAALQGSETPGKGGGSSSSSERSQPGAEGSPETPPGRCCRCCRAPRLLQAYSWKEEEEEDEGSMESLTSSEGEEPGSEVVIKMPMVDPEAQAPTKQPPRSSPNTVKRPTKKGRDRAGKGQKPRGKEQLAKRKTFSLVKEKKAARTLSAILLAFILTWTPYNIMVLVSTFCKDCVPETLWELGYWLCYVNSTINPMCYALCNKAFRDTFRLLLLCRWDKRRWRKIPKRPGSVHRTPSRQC

[16] = biological target: Serine/threonine-protein kinase PAK 2 (Homo sapiens) (UniProt Q13177); test: PAK2 (PAK65) Kinase screen; settings: Compound concentration 1.0 uM

Measured: inhibition

Chain of Serine/threonine-protein kinase MARK1 (Homo sapiens) (Q9P0L2 whole entry, looked up): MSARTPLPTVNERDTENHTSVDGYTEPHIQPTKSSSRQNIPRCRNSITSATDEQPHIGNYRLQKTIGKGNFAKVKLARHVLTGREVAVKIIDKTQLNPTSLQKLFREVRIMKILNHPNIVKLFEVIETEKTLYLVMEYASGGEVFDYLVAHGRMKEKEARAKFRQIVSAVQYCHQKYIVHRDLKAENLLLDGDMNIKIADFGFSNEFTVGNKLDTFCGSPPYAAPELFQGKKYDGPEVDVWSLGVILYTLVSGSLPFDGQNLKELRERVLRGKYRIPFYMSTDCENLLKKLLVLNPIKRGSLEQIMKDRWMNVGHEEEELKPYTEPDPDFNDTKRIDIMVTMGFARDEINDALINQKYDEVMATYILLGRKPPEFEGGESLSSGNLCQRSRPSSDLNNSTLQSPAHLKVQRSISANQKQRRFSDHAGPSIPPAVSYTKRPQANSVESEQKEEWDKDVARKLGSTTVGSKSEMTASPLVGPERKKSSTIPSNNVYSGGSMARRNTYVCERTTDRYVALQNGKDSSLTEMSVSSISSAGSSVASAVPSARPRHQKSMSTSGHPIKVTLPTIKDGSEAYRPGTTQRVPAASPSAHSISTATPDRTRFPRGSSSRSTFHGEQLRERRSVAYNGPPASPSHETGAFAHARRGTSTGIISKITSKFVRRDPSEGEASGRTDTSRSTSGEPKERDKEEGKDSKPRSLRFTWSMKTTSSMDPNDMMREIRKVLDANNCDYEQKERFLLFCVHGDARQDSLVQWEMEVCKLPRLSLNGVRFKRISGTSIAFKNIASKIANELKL

C[C@@H]1CN(c2cc(-c3n[nH]c4ccc(OC5(C)CC5)cc34)ncn2)C[C@H](C)O1 [MLi-2]
inactive: [1] 8.35% | [2] 2.74% | Rattus norvegicus -1% | [3] 8% | [4] -0.0326% | [5] -0.0985% | [6] 3.84% | [7] 11.2% | [8] 9.6% | [9] 3.53% | [10] -2.46% | [11] 5.69% | [12] 9% | [13] 5.05% | [14] 11.9% | [15] 12% | [16] 8.73%
